Test results reported in patent US7304171B2, “Compounds and methods for cytoprotection” (Migenix Corp., priority 2004, dated 2007).

System: rd1 mutant mice retinas (retinal photoreceptors)
Experiment: Murine rd1 retinal explant model for retinitis pigmentosa: photoreceptor cytoprotection in vitro
Assay type: cell-based, mouse
Details: 1 μM
From the text: Retinas were dissected at postnatal day 7 from rd1 mutant mice (Bowes et al., 1990 Nature 347:677; Frasson et al., 1999 Nat. Med. 5:1183), which carry a spontaneous cGMP phosphodiesterase mutation in retinal rod photoreceptors, leading to rapid and premature rod cell apoptosis in this animal model for the ophthalmic degenerative disease retinitis pigmentosa (RP); control retinas were from the background strain (C3H). Retinas were mounted flat on nitrocellulose membranes attached to culture dish inserts and maintained in serum-free R16 culture medium for 21 days, reflecting a stage corresponding to postnatal day 28 (Caffe et al., 2001 J. Chem. Neuroanat. 22:263). […] Slides containing the sections were coded and scored using light microscopy, by counting the rows of photoreceptors in the outer nuclear layer of the retina for five fields from each section. […] Typically, six sections from each preparation were scored, representing different cutting depths, and the collected averages from the six slides were averaged to yield an average value of remaining rows of retinal photoceptors per retina, which value was used for statistical analysis. Data were analyzed by Student's paired t-test; ratios were also calculated of treated:untreated retinas from each intra-animal pair and analyzed by Student's one-group t-test, with the population mean set to 1.0.

With `CO/N=C1\CCC2C3CCc4cc(O)c(C56CC7CC(CC(C7)C5)C6)cc4C3CC[C@]12C` (some centres unmarked) [compound 5] the “No. Rows Photoreceptors” value (rd1 retinal explant, 21 days of culture, n = 4, paired t-test p = 0.038 vs contralateral DMSO control (1.87 ± 0.11)) was 2.11 ± 0.13 and the “Treated:Untreated” value (ratio of photoreceptor rows, treated:untreated retina of each intra-animal pair, 21 days, 1-group t-test p = 0.144) was 1.10 ± 0.10.
